Reference: the NIST ThermoML archive (doi:10.1016/j.jct.2009.09.006)
± gives the expanded uncertainty stated by the source.

How the values were obtained:
[1] = Crystal; DTA
[2] = Molar enthalpy of transition or fusion; details: Crystal; DSC

CCCCn1cc[n+](C)c1.Cc1ccc(S(=O)(=O)[O-])cc1 [1-butyl-3-methylimidazolium tosylate]
Normal melting temperature [1]: 57.01 ± 0.39 °C | Molar enthalpy of transition or fusion [2]: 3.91 ± 0.108 kcal/mol
